Measurements published in patent publication US9045482B2, “Pyrido[4,3-B]indoles and methods of use” (Medivation Technologies, Inc., priority 2009, dated 2015).

What was measured:
[1] = biological target: T1, human recombinant serotonin (5-Hydroxytryptamine) 5-HT2A receptor (Homo sapiens, UniProt P28223); assay: Serotonin 5-HT2A radioligand binding ([3H]Ketanserin); conditions: 0.1 μM ligand concentration
T1 construct: expressed in transfected cells; host or cells: Chinese hamster ovary (CHO-K1) cells
Protocol: (1997), 68:1998] in a 50 mM Tris-HCl buffer, pH 7.4, was used. Compounds of the invention were incubated with 0.5 nM [^3H]Ketanserin for 60 min at 25° C. Non-specific binding was estimated in the presence of 1 μM Mianserin. Receptor proteins were filtered and washed, the filters were then counted to determine [^3H]Ketanserin specifically bound. Compounds were screened at 1 μM or lower, using 1% DMSO as vehicle. Biochemical assay results are presented as the percent inhibition of specific binding in Table 4.

[2] = biological target: T2, human recombinant adrenergic α2B receptor (Homo sapiens, UniProt P18089); assay: Adrenergic α2B radioligand binding ([3H]Rauwolscine); conditions: 0.1 μM ligand conc.
T2 construct: expressed in transfected cells; host or cells: Chinese hamster ovary (CHO-K1) cells
T2 sequence (P18089 1-450): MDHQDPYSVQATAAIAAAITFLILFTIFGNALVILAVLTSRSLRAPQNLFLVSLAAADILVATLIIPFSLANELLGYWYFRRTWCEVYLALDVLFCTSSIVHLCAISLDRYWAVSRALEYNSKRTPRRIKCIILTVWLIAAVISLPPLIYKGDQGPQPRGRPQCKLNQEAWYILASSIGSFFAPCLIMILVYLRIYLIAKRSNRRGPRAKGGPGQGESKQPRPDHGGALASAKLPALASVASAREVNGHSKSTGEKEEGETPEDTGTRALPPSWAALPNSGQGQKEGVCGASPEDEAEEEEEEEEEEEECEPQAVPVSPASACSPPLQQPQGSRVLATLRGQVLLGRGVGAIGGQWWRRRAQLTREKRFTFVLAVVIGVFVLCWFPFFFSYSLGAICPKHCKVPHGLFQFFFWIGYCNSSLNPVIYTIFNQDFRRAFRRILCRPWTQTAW
Protocol: To evaluate in radioligand binding assays the activity of compounds of the invention, human recombinant adrenergic α2B receptor expressed in Chinese hamster ovary (CHO-K1) cells [Uhlen, S. et al., Eur. J. Pharmacol. (1998), 343(1):93] in a modified Tris-HCl buffer (50 mM Tris-HCl, pH 7.4, 12.5 mM MgCl2, 1 mM EDTA, 0.2% BSA) was used. Compounds of the invention were incubated with 2.5 nM [^3H]Rauwolscine for 60 min at 25° C. Non-specific binding was estimated in the presence of 10 μM Prozosin. Receptor proteins were filtered and washed, the filters were then counted to determine [^3H]Rauwolscine specifically bound. Compounds were screened at 1 μM or lower, using 1% DMSO as vehicle. Compounds of the invention were tested in this biochemical assay. Biochemical assay results for representative compounds were presented as the percent inhibition of specific binding in Table 3.

[3] = biological target: human recombinant serotonin (5-Hydroxytryptamine) 5-HT7 receptor (Homo sapiens, UniProt P34969); assay: Serotonin 5-HT7 radioligand binding ([3H]LSD); conditions: 0.1 μM ligand concentration
Protocol: Compounds of invention were incubated with 5.5 nM [^3H]Lysergic acid diethylamide (LSD) for 2 h at 25° C. […] Receptor proteins were filtered and washed, the filters were then counted to determine [^3H]LSD specifically bound. Compounds were screened at 1 μM or lower, using 1% DMSO as vehicle. Biochemical assay results are presented as the percent inhibition of specific binding in Table 4.

[4] = biological target: T3, human recombinant serotonin (5-Hydroxytryptamine) 5-HT6 receptor (Homo sapiens, UniProt P50406); assay: Serotonin 5-HT6 radioligand binding ([3H]LSD); conditions: 0.1 μM ligand concentration
T3 construct: expressed in transfected cells; host or cells: human HeLa cells
Protocol: Compounds of the invention were incubated with 1.5 nM [3H]Lysergic acid diethylamide (LSD) for 120 min at 37° C. […] Receptor proteins were filtered and washed, the filters were then counted to determine [3H]LSD specifically bound. Compounds were screened at 1 μM or lower, using 1% DMSO as vehicle. Biochemical assay results are presented as the percent inhibition of specific binding in Table 4.

human recombinant serotonin (5-Hydroxytryptamine) 5-HT7 receptor, sequence (P34969 whole entry): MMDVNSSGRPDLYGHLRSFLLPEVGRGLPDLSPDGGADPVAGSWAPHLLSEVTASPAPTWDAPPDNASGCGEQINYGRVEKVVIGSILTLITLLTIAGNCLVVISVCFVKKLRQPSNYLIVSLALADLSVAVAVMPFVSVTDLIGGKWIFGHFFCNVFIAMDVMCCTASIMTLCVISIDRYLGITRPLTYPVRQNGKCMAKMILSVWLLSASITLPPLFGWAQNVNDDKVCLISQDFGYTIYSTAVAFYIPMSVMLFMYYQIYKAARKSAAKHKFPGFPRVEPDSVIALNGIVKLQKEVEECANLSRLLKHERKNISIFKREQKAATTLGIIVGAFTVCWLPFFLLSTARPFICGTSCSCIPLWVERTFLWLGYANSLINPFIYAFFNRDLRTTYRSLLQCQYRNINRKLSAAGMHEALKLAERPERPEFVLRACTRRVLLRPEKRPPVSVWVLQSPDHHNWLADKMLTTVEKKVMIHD
T1 sequence (P28223 whole entry): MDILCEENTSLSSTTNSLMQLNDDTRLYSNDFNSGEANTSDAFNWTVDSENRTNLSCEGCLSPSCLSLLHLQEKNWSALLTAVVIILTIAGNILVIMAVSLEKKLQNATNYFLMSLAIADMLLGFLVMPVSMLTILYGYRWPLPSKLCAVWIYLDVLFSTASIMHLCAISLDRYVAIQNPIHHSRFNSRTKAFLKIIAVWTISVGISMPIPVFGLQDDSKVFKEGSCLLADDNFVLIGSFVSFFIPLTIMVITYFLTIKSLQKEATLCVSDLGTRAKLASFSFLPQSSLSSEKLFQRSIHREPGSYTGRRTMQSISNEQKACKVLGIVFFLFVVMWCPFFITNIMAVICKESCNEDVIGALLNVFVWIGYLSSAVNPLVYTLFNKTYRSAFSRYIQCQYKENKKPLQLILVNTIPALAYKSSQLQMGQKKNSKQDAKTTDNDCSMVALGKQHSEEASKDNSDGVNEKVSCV
T3 sequence (P50406 whole entry): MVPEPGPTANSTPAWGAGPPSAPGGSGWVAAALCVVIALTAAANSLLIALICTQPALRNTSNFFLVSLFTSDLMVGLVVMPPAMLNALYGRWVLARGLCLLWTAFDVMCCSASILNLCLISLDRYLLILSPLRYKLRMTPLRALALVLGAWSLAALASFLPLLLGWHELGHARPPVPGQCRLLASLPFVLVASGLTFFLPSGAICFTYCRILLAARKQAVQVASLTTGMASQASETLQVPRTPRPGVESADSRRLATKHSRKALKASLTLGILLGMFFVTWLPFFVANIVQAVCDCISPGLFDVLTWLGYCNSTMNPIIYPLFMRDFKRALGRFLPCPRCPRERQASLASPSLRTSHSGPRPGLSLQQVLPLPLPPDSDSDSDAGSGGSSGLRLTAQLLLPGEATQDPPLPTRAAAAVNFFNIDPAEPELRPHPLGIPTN

Cc1cnc2c(c1)c1c(n2CC(=O)N2CCCCC2)CCN2CCCC12 (centres unmarked) [Compound 41, 2-(10-methyl-2,3,5,6-tetrahydro-1H-pyrido[3′,2′:4,5]pyrrolo[2,3-g]indolizin-7(11cH)-yl)-1-(piperidin-1-yl)ethanone]
Percent Inhibition of ligand binding Serotonin 5-HT2A [1]: −2% | Percent Inhibition of ligand binding Adrenergic α2B [2]: 14% | Percent Inhibition of ligand binding Serotonin 5-HT7 [3]: −5% | Percent Inhibition of ligand binding Serotonin 5-HT6 [4]: 8%

Cc1cnc2c(c1)c1c(n2CC(=O)N2CCCCC2)CC2CCCN2C1 (centres unmarked) [Compound 42, 2-(3-methyl-8,9,9a,10-tetrahydro-5H-pyrido[3′,2′:4,5]pyrrolo[3,2-f]indolizin-11(7H)-yl)-1-(piperidin-1-yl)ethanone]
Percent Inhibition of ligand binding Serotonin 5-HT2A [1]: 1% | Percent Inhibition of ligand binding Adrenergic α2B [2]: 3% | Percent Inhibition of ligand binding Serotonin 5-HT7 [3]: −1% | Percent Inhibition of ligand binding Serotonin 5-HT6 [4]: 2%
